In patent US12472247B2, “Immune adjuvant comprising hepatitis B virus-derived polypeptide” (priority 2020, dated 2025):
Entries after “also recorded” stand apart in the source; their conditions may differ.

Legend:
dendritic cells = test: migration of Poly6-treated dendritic cells to lymph nodes after footpad injection; format: in vivo, mouse; conditions: for ability of activated dendritic cells to migrate to the lymph nodes: 0.1 μM of Poly6, 0.1 μg/ml of LPS, vs DCs without any treatment
Protocol: Dendritic cells activated by treatment with Poly6 peptides for 24 hours were fluorescently labeled (CFSE) and injected into C57BL/6 mice by footpad injection, and after 3 days, the inguinal lymph nodes of the mice were extracted to confirm numbers of labeled dendritic cells.

HBV = test: anti-HBV effect in HBV-carrier mouse models (hydrodynamic injection); format: in vivo, hepatitis B virus
[1] = system: dendritic cells differentiated from mouse bone marrow cells; test: maturation markers of dendritic cells by FACS; format: cell-based; conditions: Poly6 0.1, 0.5, 1 μM, 24 hours
Protocol: (§1) The femur and tibia of C57BL/6 mice were isolated, and bone marrow cells therein were isolated. The isolated bone marrow cells were cultured in IMDM medium (supplemented with IL-4 and GM-CSF) to induce differentiation of dendritic cells. After culturing for 6 days, dendritic cells having 80% or more of CD11c markers were used in the experiment (FIG. 3).
Dendritic cells differentiated from mouse bone marrow cells were treated with Poly6 peptides at each concentration of 0.1 μM, 0.5 μM, and 1 μM and cultured for 24 hours, and then expression of representative maturation markers CD80, CD86, and MHC I, and a migration marker CCR7 of dendritic cells were confirmed by fluorescence activated cell sorting (FACS).

[2] = system: dendritic cells differentiated from mouse bone marrow cells; test: inflammatory cytokines secreted by dendritic cells (ELISA); format: cell-based; conditions: Poly6 0.1, 0.5, 1 μM, 24 hours
Protocol: as §1
When dendritic cells were treated with Poly6 peptides at concentrations of 0.1 μM, 0.5 μM, and 1 μM for 24 hours, inflammatory cytokines TNF-α, IL-6, and IL-12p40 secreted by dendritic cells were confirmed by ELISA.

[3] = system: peripheral blood mononuclear cells (PBMC); test: IFN-γ-expressing T cells in PBMC treated with Poly6; format: cell-based; conditions: human PBMC, IL-2 three days, Poly6 at various concentrations

Substance	ability of activated dendritic cells to migrate to the lymph nodes (dendritic cells)	anti-HBV effects (HBV)	expression level of the maturation markers of dendritic cells (CD80, CD86, MHC I, CCR7) [1]	amounts of TNF-α, IL-6, and IL-12p40 secreted by dendritic cells [2]	numbers of dendritic cells found in the lymph nodes (dendritic cells; DCs treated with 0.1 μM Poly6, footpad injection, 3 days, vs untreated DCs)	IFN-γ-expressing T cells [3]	anti-HIV-1 effects (HIV-1)
lipopolysaccharide [LPS, reference compound]	have an ability to migrate to the lymph nodes on their own						
GRLVFQ (poly6 peptide)	have an ability to migrate to the lymph nodes on their own	anti-HBV effects in HBV-carrier mouse models were also observed	increased as the concentration of treated Poly6 increased	amounts of TNF-α, IL-6, and IL-12p40 secreted by dendritic cells increased	increased statistically significantly	significantly increased IFN-γ-expressing T cells compared to a group treated with PBS; also recorded: concentration-dependent trend was also observed	showed anti-HIV-1 effects
